The structures appear in SMILES notation. pIC50: −log10 of the molar value. Read-outs that look alike come from different tables or passages of the source.

The results in this text go back to patent US10821115B2, “Compounds that inhibit Mcl-1 protein” (priority 2017, dated 2020).

In test [1] the target is recombinant human Mcl-1 (residues 171-327) / Bim interaction (Homo sapiens (Human), UniProt Q07820). In words: biochemical. It is filed as binding. Conditions: read-out: Mcl-1 HTRF IC50. (In general: In TR-FRET formats the signal depends on donor and acceptor labels being close together.)
Test [2] has as its system human multiple myeloma cell line, OPM-2. In words: Cell viability assay (OPM-2 10 FBS), CellTiter-Glo. The class given is cell-based. In outline: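 Cells were seeded at 3000 cells/well in RPMI 1640 with 10% FBS and exposed to serially diluted compounds for 16 h at 37 °C, 5% CO2.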
A general note: Cellular ATP, detected with luciferase, serves as a proxy for viable cell number.

Where [3] appears, read: TR-FRET, Mcl-1(171-327) / biotin-Bim (51-76).
Setting [4] is: Homo sapiens, OPM-2, 16 h, read-out: OPM-2 10% FBS IC50 IP, OPM-2 cells, 10% FBS, 16 h, CellTiter-Glo.
Where [5] appears, read: 0.1 nM Mcl-1(171-327), 0.05 nM biotin-Bim (51-76).
Setting [6] is: Homo sapiens, OPM-2, 16 h, read-out: OPM-2 10% FBS IC50 IP, OPM-2 cells, 10% FBS, 16 h incubation.

Sequence of recombinant human Mcl-1 (residues 171-327) / Bim interaction (Q07820 171-327): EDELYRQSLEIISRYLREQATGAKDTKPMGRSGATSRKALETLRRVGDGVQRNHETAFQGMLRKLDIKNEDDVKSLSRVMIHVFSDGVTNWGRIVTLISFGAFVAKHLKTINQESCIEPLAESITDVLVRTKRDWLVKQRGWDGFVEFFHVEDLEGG

As for `COCCOC[C@@]1(O)/C=C/C[C@H](C)[C@@H](C)S(=O)(=O)NC(=O)c2ccc3c(c2)N(C[C@@H]2CC[C@H]21)C[C@@]1(CCCc2cc(Cl)ccc21)CO3` [Example 100445, (1S,3′R,6′R,7′R,8′E,11′S,12′R)-6-chloro-7′-hydroxy-7′-((2-methoxyethoxy)methyl)-11′,12′-dimethyl-3,4-dihydro-2H,15′H-spiro[naphthalene-1,22′-[20]oxa[13]thia[1,14]diazatetracyclo [14.7.2.0~3,6~.0~19,24~]pentacosa[8,16,18,24]tetraen]-15′-one 13′,13′-dioxide], the pIC50 in test [1] (setting [3]) is 10.40; in test [2] (setting [4]), 7.01.
On to `CO[C@]1(CN2CCCN(C(C)C)CC2)/C=C/C[C@H](C)[C@@H](C)S(=O)(=O)NC(=O)c2ccc3c(c2)N(C[C@@H]2CC[C@H]21)C[C@@]1(CCCc2cc(Cl)ccc21)CO3` [Example 327, (1S,3′R,6′R,7′R,8′E,11′S,12′R)-6-chloro-7′-methoxy-11′,12′-dimethyl-7′-((4-(1-methylethyl)-1,4-diazepan-1-yl)methyl)-3,4-dihydro-2H,15′H-spiro[naphthalene-1,22′-[20]oxa[13]thia[1,14]diazatetracyclo [14.7.2.0~3,6~.0~19,24~]pentacosa[8,16,18,24]tetraen]-15′-one 13′,13′-dioxide], for which the pIC50 in test [1] (setting [5]) was 9.67; in test [2] (setting [6]), 6.76.
With `C[C@@H]1[C@@H](C)C/C=C/[C@@](O)(c2nc(CO)nn2C)[C@@H]2CC[C@H]2CN2C[C@@]3(CCCc4cc(Cl)ccc43)COc3ccc(cc32)C(=O)NS1(=O)=O` [Example 100200, (1S,3′R,6′R,7′S,8′E,11′S,12′R)-6-chloro-7′-hydroxy-7′-(3-(hydroxymethyl)-1-methyl-1H-1,2,4-triazol-5-yl)-11′,12′-dimethyl-3,4-dihydro-2H,15′H-spiro[naphthalene-1,22′-[20]oxa[13]thia[1,14]diazatetracyclo [14.7.2.0~3,6~.0~19,24~]pentacosa[8,16,18,24]tetraen]-15′-one 13′,13′-dioxide], the pIC50 was 9.67 in test [1] (setting [3]) and 5.97 in test [2] (setting [4]).
For the compound `CO[C@]1(c2nccs2)/C=C/C[C@H](C)[C@@H](C)S(=O)(=O)NC(=O)c2ccc3c(c2)N(C[C@@H]2CC[C@H]21)C[C@@]1(CCCc2cc(Cl)ccc21)CO3` (single isomer, unassigned) [Example 100522], the pIC50 in test [1] (setting [3]) was 9.84; in test [2] (setting [4]) it was 6.27.
On to `C[C@@H]1[C@@H](C)C/C=C/[C@](C)(O)[C@@H]2CC[C@H]2CN2C[C@@]3(CCCc4cc(Cl)ccc43)COc3ccc(nc32)C(=O)NS1(=O)=O` (single isomer, unassigned) [Example 100600], for which the pIC50 was 9.35 in test [1] (setting [3]) and 6.28 in test [2] (setting [4]).
For `CO[C@@]1(CCN2CC(C)(N(C)C)C2)/C=C/C[C@H](C)[C@@H](C)S(=O)(=O)NC(=O)c2ccc3c(c2)N(C[C@@H]2CC[C@H]21)C[C@@]1(CCCc2cc(Cl)ccc21)CO3` [Example 100431, (1S,3′R,6′R,7′S,8′E,11′S,12′R)-6-chloro-7′-(2-(3-(dimethylamino)-3-methyl-1-azetidinyl)ethyl)-7′-methoxy-11′,12′-dimethyl-3,4-dihydro-2H,15′H-spiro[naphthalene-1,22′-[20]oxa[13]thia[1,14]diazatetracyclo [14.7.2.0~3,6~.0~19,24~]pentacosa[8,16,18,24]tetraen]-15′-one 13′,13′-dioxide], the pIC50 is 10.37 in test [1] (setting [3]) and 6.54 in test [2] (setting [4]).
With `C[C@@H]1[C@@H](C)C/C=C/[C@](O)(C#N)[C@@H]2CC[C@H]2CN2C[C@@]3(CCCc4cc(Cl)ccc43)COc3ccc(cc32)C(=O)NS1(=O)=O` [Example 100237, (1S,3′R,6′R,7′R,8′E,11′S,12′R)-6-chloro-7′-hydroxy-11′,12′-dimethyl-15′-oxo-3,4-dihydro-2H-spiro[naphthalene-1,22′-[20]oxa[13]thia[1,14]diazatetracyclo [14.7.2.0~3,6~.0~19,24~]pentacosa[8,16,18,24]tetraene]-7′-carbonitrile 13′,13′-dioxide], the pIC50 in test [1] (setting [3]) is 8.76; in test [2] (setting [4]) it was 6.00.
Turning to `C[C@@H]1[C@@H](C)C/C=C/[C@@](O)(CC(=O)N2CCN3CCOC[C@@H]3C2)[C@@H]2CC[C@H]2CN2C[C@@]3(CCCc4cc(Cl)ccc43)COc3ccc(cc32)C(=O)NS1(=O)=O` [Example 100305, (1S,3′R,6′R,7′S,8′E,11′S,12′R)-6-chloro-7′-(2-((9aS)-hexahydropyrazino[2,1-c][1,4]oxazin-8(1H)-yl)-2-oxoethyl)-7′-hydroxy-11′,12′-dimethyl-3,4-dihydro-2H,15′H-spiro[naphthalene-1,22′-[20]oxa[13]thia[1,14]diazatetracyclo [14.7.2.0~3,6~.0~19,24~]pentacosa[8,16,18,24]tetraen]-15′-one 13′,13′-dioxide], the pIC50 was 9.33 in test [1] (setting [3]) and 5.94 in test [2] (setting [4]).
Turning to `COCC[C@@H]1[C@@H](C)C/C=C/[C@@](CN2CCN(C3(C)COC3)CC2)(OC)[C@@H]2CC[C@H]2CN2C[C@@]3(CCCc4cc(Cl)ccc43)COc3ccc(cc32)C(=O)NS1(=O)=O` [Example 192, (1S,3′R,6′R,7′R,8′E,11′S,12′R)-6-chloro-7′-methoxy-12′-(2-methoxyethyl)-11′-methyl-7′-((4-(3-methyl-3-oxetanyl)-1-piperazinyl)methyl)-3,4-dihydro-2H,15′H-spiro[naphthalene-1,22′-[20]oxa[13]thia[1,14]diazatetracyclo [14.7.2.0~3,6~.0~19,24~]pentacosa[8,16,18,24]tetraen]-15′-one 13′,13′-dioxide], the pIC50 in test [1] (setting [5]) is 10.11; in test [2] (setting [6]), 7.19.
Regarding `C[C@@H]1[C@@H](C)C/C=C/[C@@](O)(C2SCCCS2)[C@@H]2CC[C@H]2CN2C[C@@]3(CCCc4cc(Cl)ccc43)COc3ccc(cc32)C(=O)NS1(=O)=O` [Example 100260, (1S,3′R,6′R,7′S,8′E,11′S,12′R)-6-chloro-7′-(1,3-dithian-2-yl)-7′-hydroxy-11′,12′-dimethyl-3,4-dihydro-2H,15′H-spiro[naphthalene-1,22′-[20]oxa[13]thia[1,14]diazatetracyclo [14.7.2.0~3,6~.0~19,24~]pentacosa[8,16,18,24]tetraen]-15′-one 13′,13′-dioxide], the negative logarithm of the IC50 (pIC50) in test [1] (setting [3]) is 9.39; in test [2] (setting [4]), 7.03.
Turning to `C[C@@H]1[C@@H](C)C/C=C/[C@@](C)(O)[C@@H]2CC[C@H]2CN2C[C@@]3(CCCc4cc(Cl)ccc43)COc3ccc(nc32)C(=O)NS1(=O)=O` (single isomer, unassigned) [Example 100601], the values for the pIC50 in test [1] (setting [3]) and in test [2] (setting [4]) were 9.94 and 6.62, respectively.
On to `CO[C@]1(CN2CC(N3CCOCC3)C2)/C=C/C[C@H](C)[C@@H](C)S(=O)(=O)NC(=O)c2ccc3c(c2)N(C[C@@H]2CC[C@H]21)C[C@@]1(CCCc2cc(Cl)ccc21)CO3` [Example 84, (1S,3′R,6′R,7′R,8′E,11′S,12′R)-6-chloro-7′-methoxy-11′,12′-dimethyl-7′-((3-(4-morpholinyl)-1-azetidinyl)methyl)-3,4-dihydro-2H,15′H-spiro[naphthalene-1,22′-[20]oxa[13]thia[1,14]diazatetracyclo [14.7.2.0~3,6~.0~19,24~]pentacosa[8,16,18,24]tetraen]-15′-one 13′,13′-dioxide], for which the negative-log IC50 (pIC50) in test [1] (setting [5]) was 9.97; in test [2] (setting [6]), 7.21.
As for `CO[C@]1(CN2CCN3CCN(S(C)(=O)=O)C[C@@H]3C2)/C=C/C[C@H](C)[C@@H](C)S(=O)(=O)NC(=O)c2ccc3c(c2)N(C[C@@H]2CC[C@H]21)C[C@@]1(CCCc2cc(Cl)ccc21)CO3` [Example 227], the pIC50 was 9.68 in test [1] (setting [5]) and 6.88 in test [2] (read-out: OPM-2 10% FBS IC50 IP, OPM-2 cells, 10% FBS, 16 h incubation).
For the compound `CO[C@@]1(C#CCCO)/C=C/C[C@H](C)[C@@H](C)S(=O)(=O)NC(=O)c2ccc3c(c2)N(C[C@@H]2CC[C@H]21)C[C@@]1(CCCc2cc(Cl)ccc21)CO3` [Example 100427, (1S,3′R,6′R,7′S,8′E,11′S,12′R)-6-chloro-7′-(4-hydroxy-1-butyn-1-yl)-7′-methoxy-11′,12′-dimethyl-3,4-dihydro-2H,15′H-spiro[naphthalene-1,22′-[20]oxa[13]thia[1,14]diazatetracyclo [14.7.2.0~3,6~.0~19,24~]pentacosa[8,16,18,24]tetraen]-15′-one 13′,13′-dioxide], the pIC50 in test [1] (setting [3]) was 9.68; in test [2] (setting [4]), 6.47.
`CO[C@@]1(CN2CCN(C)CC2)/C=C/C[C@H](C)[C@@H](C)S(=O)(=O)NC(=O)c2ccc3c(c2)N(C[C@@H]2CC[C@H]21)C[C@@]1(CCCc2cc(Cl)ccc21)CO3` [Example 196, (1S,3′R,6′R,7′S,8′E,11′S,12′R)-6-chloro-7′-methoxy-11′,12′-dimethyl-7′-((4-methyl-1-piperazinyl)methyl)-3,4-dihydro-2H,15′H-spiro[naphthalene-1,22′-[20]oxa[13]thia[1,14]diazatetracyclo [14.7.2.0~3,6~.0~19,24~]pentacosa[8,16,18,24]tetraen]-15′-one 13′,13′-dioxide]: the pIC50 in test [1] (setting [5]) is 9.33; in test [2] (setting [6]), 6.52.
As to `C[C@@H]1[C@@H](C)C/C=C/[C@](O)(c2cnccc2F)[C@@H]2CC[C@H]2CN2C[C@@]3(CCCc4cc(Cl)ccc43)COc3ccc(cc32)C(=O)NS1(=O)=O` (stereo in doubt) [Example 100537], the pIC50 is 9.94 in test [1] (setting [3]) and 6.59 in test [2] (setting [4]).
For `C[C@@H]1[C@@H](C)C/C=C/[C@@](O)(C[S@@+](C)[O-])[C@@H]2CC[C@H]2CN2C[C@@]3(CCCc4cc(Cl)ccc43)COc3ccc(cc32)C(=O)NS1(=O)=O` (stereo in doubt) [Example 100075], the negative-log IC50 (pIC50) in test [1] (setting [3]) is 9.17; in test [2] (read-out: OPM-2 10% FBS IC50 IP, OPM-2 cells, 10% FBS, 16 h, CellTiter-Glo), 5.74.

As a reminder, the pIC50 is the IC50 on a negative log10 scale, so that one unit is a factor of ten.
